Laboratory results reported in US10053422B2, “Compounds for the treatment of mTOR pathway related diseases” (Pitney Pharmaceuticals Pty Limited, priority 2012, dated 2018).
“Also recorded” adds a separate entry of the source. Like-named read-outs stand apart in the source and are kept apart here.

Experiments:
[1] = tested on: PARP-1 in OVCAR-3 and A2780 cells; test: Western blot of PARP and cleaved PARP; type: cell-based, human; details: MPL 0, 5, 10, 25 μM; 24, 48 or 72 h
Procedure: OVCAR-3 and A2780 cells grown under cell culture conditions were incubated with various concentrations of MPL [0, 5, 10, 25 μM] for 24, 48 or 72 hours. Cell lysates were then prepared and analysed by western blotting for the determination of PARP and cleaved PARP.
Exposure of OVCAR-3 or A2780 cells to MPL (0, 5, 10, 25 μM) for 24, 48 or 72 h causes cleavage of PARP, which leads to cellular disassembly and serves as a marker of dying cells.
Protein expression in cells was determined using western blot analysis. After treatment with the indicated concentrations of MPL, cell lysates were prepared and probed with antibodies for cdk2, cdk4, cyclin A, cyclin E, PARP-1 (1:1000 dilutions; Cell Signalling Technology), and p53 (1:200 dilutions; Santa Cruz Biotechnology).
To investigate whether the MPL-induced cell death involves cleavage of PARP, western blot analysis of lysates of MPL-treated cells for PARP-1 and cleaved PARP-1 was carried out. Cleavage of PARP-1 promotes apoptosis by preventing DNA-repair-induced survival.

[2] = tested on: Normal cells HOSE, CHO, HEK and HUVEC; test: Cell viability assay (Trypan blue), normal cells; type: cell-based; details: MPL 0, 5, 10, 25 μmol/L, 72 h
Procedure: Normal cells HOSE, CHO, HEK and HUVEC were cultured in the presence of MPL (0, 5, 10, 25, μmol/L) for 72 h. Effect of MPL on cell viability was assessed using the standard Trypan blue assay. Results are presented as mean±SEM compared to control (100%).
For viability experiments, cells seeded in 6 well plates were exposed to monepantel (MPL) at 0, 1, 10, 50 and 100 μM concentrations for 24, 48 or 72 h. Monepantel (gift by Novartis, Basel, Switzerland) was dissolved in 100% ethanol and then diluted with the cell culture media. At the end of treatment period, cells were washed with PBS, trypsinized and counted using Trypan blue and hemocytometer. All experimental points were set up in quadruplicate and each experiment was performed at least twice.
In brief, MPL and MPL-SO2 were tested in vitro against a wide range of cancer cell-lines with extensively different disease characteristics. For further detailed studies, human ovarian cancer cell lines OVCAR-3 and A2780 were chosen. […] Cell viability was assessed using Trypan blue assay (FIG. 9). Similarly, effect of MPL on the growth of normal epithelial, endothelial, embryonic and fetal cells were investigated (FIG. 10) while cell proliferation was assessed using the SRB assay (FIG. 11). Control (vehicle treated) cells were taken to present 100% proliferation and the MPL treated groups are expressed as percentage of control±SEM. […]

[3] = tested on: DU-145 prostate cancer cells; test: SRB cell proliferation assay, DU-145; type: cell-based; details: for IC50: Homo sapiens
Procedure: (§1) Cell proliferation was assessed using the sulforhodamine B (SRB) assay. Cells seeded in 96-well plate (2,000-3,000 cell/well) were treated with MPL (0, 1, 5, 10, 25, 50 and 100 μmol/L) for 72 h. Cells were then fixed, washed and stained with 100 μl of 0.4% (w/v) SRB dissolved in 1% acetic acid. Unbound dye was removed by five washes with 1% acetic acid before air drying. Bound SRB was solubilized with 100 μl of 10 mM Tris base (pH 10.5) and the absorbance read at 570 nm. Exactly the same procedure was used to assess MPL-SO2. Both agents were dissolved in ethanol and diluted with media to give the final concentrations required for cell culture assays.

[4] = tested on: cancer cell lines; test: SRB cell proliferation assay, range of cancer cell lines (general statements); type: cell-based
Procedure: as §1
In brief, MPL and MPL-SO2 were tested in vitro against a wide range of cancer cell-lines with extensively different disease characteristics. For further detailed studies, human ovarian cancer cell lines OVCAR-3 and A2780 were chosen. Additionally, normal human ovarian surface epithelial cells (HOSE) and were cultured in the presence of MPL (0, 5, 10, 25, 50 and 100 μM) for 72 h. Cell viability was assessed using Trypan blue assay (FIG. 9). Similarly, effect of MPL on the growth of normal epithelial, endothelial, embryonic and fetal cells were investigated (FIG. 10) while cell proliferation was assessed using the SRB assay (FIG. 11). Control (vehicle treated) cells were taken to present 100% proliferation and the MPL treated groups are expressed as percentage of control±SEM. Each drug concentration was tested in quadruplicate and each experiment was repeated at least twice. For statistical comparisons, each drug treated group is compared to the control group using Student's t test. To examine concentration dependent drug effect, analysis of variance (ANOVA) was used. P values are: *=<0.05; **<0.01 and ***=<0.001, **** p<0.0001. […] In order to find out if the MPL effect is mediated through the nicotinic acetyl choline receptor and in particular the nACHR7 subtype, cells were pretreated with antagonists and then exposed to MPL (FIG. 12).

[5] = tested on: U251 glioma cells; test: Autophagy (vacuoles), U251; type: cell-based
From the text: Concentration-dependent conversion of LC3-I to LC3-II confirms the increasing phenomenon of autophagy in these cells.

[6] = tested on: A2780 ovarian cancer cells; test: Autophagy (vacuole formation), A2780; type: cell-based, human
From the text: Autophagy is a characteristic of mTOR inhibition.

[7] = tested on: OVCAR-3 or A2780 cells; test: Cellular ATP and ADP/ATP ratio; type: cell-based, human
Procedure: ADP and ATP levels in the media were measured using the commercial colorimetric/fluorometric assay kits from Abcam together with the ApoGlow assay kit from Lonza (Sydney, Australia subsidary). Each value represents mean+s.e.m. of at least two determinations.

[8] = tested on: 3T3 fibroblast; test: SRB cell proliferation assay, 3T3; type: cell-based; details: 3T3, fibroblast (Table 2); read-out: IC50 in suppressing proliferation
Procedure: as §1

[9] = tested on: T47-D cells; test: SRB cell proliferation assay, T47-D; type: cell-based; details: Homo sapiens, T47D
Procedure: as §1

[10] = tested on: A2780 cells; test: SRB cell proliferation assay, A2780; type: cell-based, human
Procedure: as §1

[11] = tested on: NF-κB signal transduction pathway in LPS-stimulated RAW 264.7 cells; test: NF-κB signal transduction in LPS-stimulated macrophages; type: cell-based
From the text: LPS-stimulated RAW 264.7 cells macrophages were used as an in vitro model system for inflammation.

[12] = tested on: mTOR and p70S6K; test: Western blot of mTOR and p70S6K phosphorylation in OVCAR-3 cells; type: cell-based, human; details: 10 μM MPL for 1, 4 or 24 hours
Procedure: Western blot analysis of cell lysates prepared from OVCAR-3 cells treated with 10 μM MPL for 1, 4 or 24 hours under cell culture conditions.

[13] = tested on: U87 cells (glioblastoma); test: SRB cell proliferation assay, U87; type: cell-based; details: for IC50: Homo sapiens, U-87 MG
Procedure: as §1

C[C@](C#N)(COc1cc(C#N)ccc1C(F)(F)F)NC(=O)c1ccc(SC(F)(F)F)cc1 [MPL, N-[(1S)-1-Cyano-2-(5-cyano-2-trifluoromethyl-phenoxy)-1-methyl-ethyl]-4-trifluoromethylsulfanyl-benzamide] was tested, and the “cleavage of PARP” value [1] was “PARP was cleaved; also recorded: highly induced cleavage of PARP”, the “viability of normal cells” value [2] was “cancer cell orientated” and the IC50 ([3]; DU-145, prostate cancer (Table 2), read-out: IC50 in suppressing proliferation) was 23 µM. The IC50 ([3]; DU-145, prostate cancer, 72 h, SRB assay (Table 1), read-out: IC50) was 23.5 µM, the “effect on DU 145 cells” value ([3]; chemo-resistant, androgen insensitive DU 145) was “very effective” and the “antiproliferative action on chemo-resistant cell lines” value ([4]; ovarian chemo-resistant, glioma temozolimide resistant, breast cancer tamoxifen resistant cells) was “sensitive”. The “antiproliferative activity, cancer cell lines versus normal cells” value ([4]; results of Table 2) was “high antiproliferative activity in cancer cell lines, whereas, normal cells are far less affected”, the “formation of autophagy (vacuoles)” value [5] was “concentration-dependent formation of autophagy” and the “formation of vacuoles (autophagy)” value [6] was “formation of vacuoles”. For the same molecule, the “cellular ATP levels” value [7] was “reduction in ATP levels”, the IC50 [8] was 12.4 ± 0.37 µM and the IC50 ([9]; breast cancer (Table 2), read-out: IC50 in suppressing proliferation) was 5.3 ± 0.003 µM. For the same molecule, the IC50 ([9]; breast cancer, 72 h, SRB assay (Table 1), read-out: IC50) was 5.7 µM, the IC50 ([10]; A2780, human epithelial ovarian cancer (Table 3), read-out: IC50 μM A2780) was 11.3 ± 0.9 µM and the IC50 ([10]; Homo sapiens, A2780, ovarian cancer, 72 h, SRB assay (Table 1), read-out: IC50) was 10 µM. For the same molecule, the IKK phosphorylation [11] was “inhibitory effect”, the IL-6 expression [11] was “down regulation of IL-6 expression” and the IκB-α phosphorylation [11] was “inhibitory effect”. The “NF-κB p65 phosphorylation” value [11] was “inhibitory effect”, the NO expression [11] was “abrogates NO expression” and the TGF-β expression [11] was “down regulation of TGF-β expression”. The NF-κB activation ([11]; immunocytochemistry and Western blot) was “decreased NF-κB activation”, the “phosphorylation [activation] of mTOR and p70S6K” value [12] was “inhibition of phosphorylation” and the IC50 ([13]; U87, glioblastoma, 72 h, SRB assay (Table 1), read-out: IC50) was 26.2 µM. The IC50 ([13]; U87, glioma (Table 2), read-out: IC50 in suppressing proliferation) was 18 µM and the “replication of U87 cells” value ([13]; highly resistant to chemotherapy) was “profoundly suppressed”.
